The structures appear in SMILES notation.

Assay in all cases: CRE-luciferase
Holding throughout (type): cell-based

One experiment addresses T1, Olfr19 (Mus musculus, UniProt Q9JHB2).
T1 sequence (Q9JHB2 1-309): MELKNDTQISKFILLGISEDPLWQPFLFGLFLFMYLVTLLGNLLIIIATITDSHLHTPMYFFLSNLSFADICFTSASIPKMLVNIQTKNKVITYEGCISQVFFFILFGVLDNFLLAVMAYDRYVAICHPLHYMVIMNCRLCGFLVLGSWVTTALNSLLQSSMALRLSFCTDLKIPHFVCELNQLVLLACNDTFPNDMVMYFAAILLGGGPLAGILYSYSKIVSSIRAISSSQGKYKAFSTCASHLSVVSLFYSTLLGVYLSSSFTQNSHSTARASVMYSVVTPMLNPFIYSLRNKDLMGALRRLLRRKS
Particulars: Hana3A cells, 10^–9 – 10^–3 M, 4 h, 37°C; agonist.

For the next experiment, the target named is T2, Olfr491 (Mus musculus, UniProt Q8VG06).
T2 sequence (Q8VG06 1-310): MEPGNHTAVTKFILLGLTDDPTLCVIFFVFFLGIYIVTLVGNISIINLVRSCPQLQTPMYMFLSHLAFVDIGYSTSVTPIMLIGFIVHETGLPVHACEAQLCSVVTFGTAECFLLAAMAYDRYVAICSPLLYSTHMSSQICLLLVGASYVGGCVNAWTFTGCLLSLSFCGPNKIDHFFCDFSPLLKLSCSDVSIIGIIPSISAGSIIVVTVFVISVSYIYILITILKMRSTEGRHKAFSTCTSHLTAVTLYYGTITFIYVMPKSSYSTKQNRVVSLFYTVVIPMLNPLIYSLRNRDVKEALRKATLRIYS
Particulars: Hana3A cells, 4 h, 37°C; agonist.

The next experiment has as its target T3, Olfr20 (Mus musculus, UniProt Q7TRX9).
T3 sequence (Q7TRX9 1-314): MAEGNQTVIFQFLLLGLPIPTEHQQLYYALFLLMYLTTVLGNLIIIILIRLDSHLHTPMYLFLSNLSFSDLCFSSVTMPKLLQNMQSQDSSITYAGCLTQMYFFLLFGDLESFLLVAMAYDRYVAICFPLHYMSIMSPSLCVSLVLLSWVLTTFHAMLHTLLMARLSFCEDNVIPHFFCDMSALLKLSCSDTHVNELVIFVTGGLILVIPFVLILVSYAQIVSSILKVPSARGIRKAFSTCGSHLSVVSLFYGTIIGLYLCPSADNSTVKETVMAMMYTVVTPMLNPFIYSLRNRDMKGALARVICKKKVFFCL
Particulars: Hana3A cells, 4 h, 37°C; agonist.

The target in a further experiment is T4, Olfr376 (Mus musculus, UniProt Q8VGI2).
T4 sequence (Q8VGI2 1-317): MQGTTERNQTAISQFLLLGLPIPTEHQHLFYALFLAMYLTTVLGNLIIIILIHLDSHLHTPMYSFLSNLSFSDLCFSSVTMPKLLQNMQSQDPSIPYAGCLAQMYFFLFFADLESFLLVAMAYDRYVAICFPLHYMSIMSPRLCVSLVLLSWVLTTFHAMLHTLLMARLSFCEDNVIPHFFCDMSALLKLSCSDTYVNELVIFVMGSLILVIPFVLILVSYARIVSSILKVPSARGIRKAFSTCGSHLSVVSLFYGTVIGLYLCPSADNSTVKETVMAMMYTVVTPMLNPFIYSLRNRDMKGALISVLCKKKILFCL
Particulars: Hana3A cells, 4 h, 37°C; agonist.

The next experiment addresses T5, Olfr57 (Mus musculus, UniProt Q8VGU7).
T5 sequence (Q8VGU7 1-319): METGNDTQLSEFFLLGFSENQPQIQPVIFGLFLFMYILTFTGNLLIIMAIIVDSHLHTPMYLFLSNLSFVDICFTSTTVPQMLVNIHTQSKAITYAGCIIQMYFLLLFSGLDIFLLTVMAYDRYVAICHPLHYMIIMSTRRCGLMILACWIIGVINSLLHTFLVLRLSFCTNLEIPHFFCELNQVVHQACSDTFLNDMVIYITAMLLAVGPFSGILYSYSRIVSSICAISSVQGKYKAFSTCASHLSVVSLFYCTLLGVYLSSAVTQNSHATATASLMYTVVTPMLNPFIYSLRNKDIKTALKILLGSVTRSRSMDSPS
Particulars: Hana3A cells, 4 h, 37°C; agonist.

With `CC(=O)c1ccccc1` [acetophenone], the EC50 result at Olfr19 is listed as “a newly identified acetophenone OR, Olfr19”.

For the compound `CC1=NC(C)SC1C` (centres unmarked) [2,5–dihydro–2,4,5–trimethylthiazoline], the “CRE-luciferase (Dual-Glo) reporter” value at Olfr491 is on record as “Five of these TMT ORs (Olfr20, Olfr30, Olfr57, Olfr376, Olfr491)”; at Olfr20, “Five of these TMT ORs (Olfr20, Olfr30, Olfr57, Olfr376, Olfr491)”; at Olfr376, “Five of these TMT ORs (Olfr20, Olfr30, Olfr57, Olfr376, Olfr491)”; at Olfr57, “Five of these TMT ORs (Olfr20, Olfr30, Olfr57, Olfr376, Olfr491)”.

The values are drawn from PMC4583814 (Nature neuroscience, 2015).
